According to patent US20080248131A1 (Metaproteomics, LLC, priority 2005, published 2008):

Experiments:
[1] = tested on: human PI3K-β, PI3K-γ, and PI3K-δ; test: PI3K isoform inhibition (Example 3); type: biochemical; conditions: 50 μg/ml
Protocol: Additionally examined was an Acacia nilotica heartwood extract. All compounds were tested at 50 μg/ml. The results are presented graphically as FIG. 3. […] Mg-IAA was approximately 3-fold more inhibitory to PI3K-β than to PI3K-γ or PI3K-δ.

[2] = tested on: IL-6 secretion, 3T3-L1 adipocytes; test: IL-6 secretion from TNFα-treated 3T3-L1 adipocytes; conditions: 10 ng TNFα/ml
DBA/J mice = test: Collagen induced rheumatoid arthritis murine model, arthritic index; type: in vivo, mouse; conditions: 10 mg/kg
Protocol: The mice were injected intradermally on day 0 with a mixture containing 100 μg of type II collagen and 100 μg of Mycobacterium tuberculosis in squalene. A booster injection was repeated on day 21. Mice were examined on days 22-27 for arthritic signs with nonresponding mice removed from the study.
Arthritic symptomology was assessed (scored 0-4) for each paw using a arthritic index as described below. Under this arthritic index 0=no visible signs; 1=edema and/or erythema: single digit; 2=edema and or erythema: two joints; 3=edema and or erythema: more than two joints; and 4=severe arthritis of the entire paw and digits associated with ankylosis and deformity.

[3] = tested on: adiponectin secretion, 3T3-L1 adipocytes; test: Adiponectin secretion in LPS/3T3-L1 adipocytes; type: cell-based, murine
[4] = tested on: adiponectin secretion, 3T3-L1 adipocytes; test: Adiponectin secretion from insulin-resistant 3T3-L1 adipocytes; type: cell-based, murine
[5] = tested on: NF-kBp65 nuclear translocation; test: Nuclear NF-kBp65 in TNFα-treated 3T3-L1 adipocytes; type: cell-based, murine; conditions: three or 24 hours
Protocol: Cell Culture and Treatment—Following differentiation 3T3-L1 adipocytes were maintained in post-differentiation medium for an additional 40 days. […] Hops derivatives and the positive control pioglitazone were tested at concentrations of 2.5, and 5.0 μg/ml. Test materials were added 1 hour prior to and nuclear extracts were prepared three and 24 hours following treatment with TNFα.
ELISA—3T3-L1 adipocytes were maintained in growth media for 40 days following differentiation. Nuclear NF-kBp65 was determined using the TransAM™ NF-kB kit from Active Motif (Carlsbad, Calif.) was used with no modifications. Jurkat nuclear extracts provided in the kit were derived from cells cultured in medium supplemented with 50 ng/ml TPA (phorbol, 12-myristate, 13 acetate) and 0.5 μM calcium ionophore A23187 for two hours at 37° C. immediately prior to harvesting.
Protein assay—Nuclear protein was quantified using the Active Motif Fluorescent Protein Quantification Kit.

[6] = tested on: adiponectin secretion, 3T3-L1 adipocytes; test: Adiponectin secretion from TNFα-treated 3T3-L1 adipocytes; type: cell-based, murine; conditions: 10 ng TNFα/ml
Protocol: 3T3-L1 cells were seeded at an initial density of 1×10^4 cells/cm^2 in 96-well plates. For two days, the cells were allowed grow to reach confluence. Following confluence, the cells were forced to differentiate into adipocytes by the addition of differentiation medium; this medium consisted of (1) 10% FBS/DMEM (high glucose); (2) 0.5 mM methylisobutylxanthine; (3) 0.5 μM dexamethasone and (4) 10 μg/ml insulin (MDI medium). From Day 3 through Day 5, the medium was changed to post-differentiation medium consisting of 10% FBS in DMEM. […] On Day 6, the supernatant medium was sampled for adiponectin determination.
Statistical Calculations and Interpretation—All assays were preformed in duplicate. […] Differences among the doses and test agents were determined using the Student's t-test without correction for multiple comparisons; the nominal five percent probability of a type I error was selected.

COc1cc(O)c(CC=C(C)C)c(O)c1C(=O)/C=C/c1ccc(O)cc1 [xanthohumol]
effect on PI3K isoforms, in words [1]: more inhibitory to PI3K-γ than to PI3K-β or PI3K-δ

COc1ccc2c(c1)c(CC(=O)O)c(C)n2C(=O)c1ccc(Cl)cc1 [indomethacin]
IL-6 secretion in presence of TNFα, in words [2]: no anti-inflammatory effect

C[C@]12C=CC(=O)C=C1CC[C@@H]1[C@@H]2[C@@H](O)C[C@@]2(C)[C@H]1CC[C@]2(O)C(=O)CO [prednisolone]
days with significant reduction of arthritic index (DBA/J mice): days 30-42

O=C(O)c1ccccc1O [salicylic acid]
adiponectin secretion in LPS-treated adipocytes, in words [3]: failed to induce adiponectin secretion

CC(=O)Oc1ccccc1C(=O)O [Aspirin, aspirin]
adiponectin secretion in LPS-treated adipocytes, in words [3]: failed to induce adiponectin secretion

CC(C)CCC1=C(O)C(C(=O)C(C)C)=C(O)C(CCC(C)C)(CCC(C)C)C1=O [hexahydro colupulone]
concentration of maximal observed adiponectin secretion [4]: 12.5 µg/mL

CCc1ccc(CCOc2ccc(CC3SC(=O)NC3=O)cc2)nc1 (centres unmarked) [pioglitazone]
nuclear NF-kBp65, in words [5]: did not inhibit | maximal restoration of adiponectin secretion, times the TNFα treatment [6]: 1.47 times
